Data on two compounds can be found in patent US12336996B2, “Drug combination containing TLR7 agonist” (Chia Tai Tianqing Pharmaceutical Group Co., Ltd., priority 2019, dated 2025).

In assay [1] the test system is HBV. Briefly: Example 2: clinical study of TLR7 agonist combined with entecavir in chronic hepatitis B patients. In kind it is in vivo, human. The settings on record: TLR7 agonist 1.0-1.8 mg once weekly, entecavir 0.5 mg/day, 24 weeks. As to the method: [drawing 54] (2-butoxy-7-(4-(pyrrolidin-1-ylmethyl) benzyl)-5H-pyrrolo[3,2-d]pyrimidin-4-amine); see WO2016023511 for the preparation method. The compound was prepared into tablets with strength of 0.2 mg or 0.5 mg. • Entecavir: commercially available entecavir tablets with strength of 0.5 mg. Commercially available entecavir tablets include, but are not limited to, entecavir dispersible tablets (Runzhong). • Placebo: a placebo for TLR7 agonist. 2. Enrolled Subjects
The subject should meet all of the following criteria: • 1) Male patients or non-pregnant, non-lactating female patients aged 18-65 years (inclusive); • 2) Serum virology: persistent positive serum HBsAg for 6 months or more, or with evidence of chronic hepatitis B for 6 months; • 3) Previously treated patients: historical HBV DNA inhibition less than the lower limit of normal 24 weeks before enrollment, and HBV DNA inhibition defined as <69 IU/mL determined by a Roche reagent during screening; Fibroscan ≤9.0 Kpa (fasting), and ALT≤5×ULN; • 4) Previously untreated patients: HBV DNA >10^5 copies/mL (or >20000 IU/mL) for HBeAg-positive chronic hepatitis B patients or HBV DNA >10^4 copies/mL (or >2000 IU/mL) for HBeAg-negative patients as determined by Roche's Cobas Taqman real-time quantitative PCR test v2.0, with the lower limit of detection being 20 IU/mL; Fibroscan ≤12.4 Kpa (fasting), and 1×ULN≤ALT≤5×ULN. […] 3. […]

For assay [2], the system named is HBV. Put plainly: AAV mice study: serum HBV DNA copy number by fluorescence quantitative PCR. It counts as in vivo, C57BL/6 mice. The following applies: for HBV DNA (result in words): over a 42-day treatment period, AAV mice; for HBV DNA replication level in mouse serum (treatment period): rAAV8-1.3HBV mice, i.g., ETV 0.0032 (1 W) & 0.001 (2-6 W) mg/kg qd, TLR7 agonist 20 mg/kg tiw. How it is done:
Male C57BL/6 mice (Shanghai Slac Laboratory Animal Co., Ltd.) aged 6-8 weeks were taken, and rAAV8-1.3HBV virus (FivePlus Institute of Molecular Medicine, Beijing) was injected into the C57BL/6 mice via tail veins at a dose of 1×10^11 vg. Blood was collected from the orbit at week 2 and week 4 after the virus was injected. Serum was separated, and HBV DNA copy number in serum were measured to determine whether the model was successfully constructed or not. Mice were randomized according to the HBV DNA copy number into vehicle control group, TLR7 agonist group (20 mg/kg, tiw), entecavir (ETV) group (0.0032 (week 1, 1 W) & 0.001 (week 2-6, 2-6 W) mg/kg, qd), and TLR7 agonist and ETV combination group, each group containing 6 mice. The mice in each group were administered intragastrically for 6 weeks, and the administration was stopped for 3 week. Blood was collected from the orbit at weeks 1, 2, 3, 4, 5 and 6 during the administration period and weeks 1, 2 and 3 during the withdrawal period, and serum was separated. The HBV DNA copy number was determined by fluorescence quantitative PCR.
• i. Vehicle control group; • ii. Monotherapy group: entecavir; • iii. Monotherapy group: TLR7 agonist; • iv. Combination group (combo): TLR7 agonist and entecavir;
The test results were evaluated by Jin equation. The Jin equation is a modified method based on the Burgi method, and is also referred to the probability addition method:
The combination efficacy is calculated according to the following equation: q=EA+B/(EA+EB−EA×EB)
wherein EA denotes the efficacy of drug A monotherapy; EB denotes the efficacy of drug B monotherapy; EA+B denotes the efficacy of the combination of drugs A and B.
The significance of q: 0.85 to 1.15 indicates simple addition; 1.15 to 20 indicates enhancement; greater than 20 indicates significant enhancement; 0.85 to 0.55 indicates antagonism; less than 0.55 indicates significant antagonism. The q value takes the absolute value.

The mark [3] stands for this setting: withdrawal period day 49, after 6 weeks of i.g. administration.
Where [4] appears, read: withdrawal period day 56, after 6 weeks of i.g. administration.
The mark [5] stands for this setting: withdrawal period day 63, after 6 weeks of i.g. administration.

For the compound `C=C1[C@H](CO)[C@@H](O)C[C@@H]1n1cnc2c(=O)[nH]c(N)nc21` [entecavir, 2-amino-9-[(1S,3R,4S)-4-hydroxy-3-hydroxymethyl-2-methylenecyclopentyl]-1,9-dihydro-6H-purin-6-one], in the assay on HBV [1], the “HBV DNA replication (result in words)” value is recorded as “inhibitory effects”. Further, the “HBV DNA (result in words)” value in the assay on HBV [2] is on record as “significantly reduced”. In addition, the “HBV DNA replication level in mouse serum (treatment period)” value was found to be 7.53 ± 0.15 logic lU/mL with HBV [2] (treatment period day 0); 5.27 ± 0.18 logic lU/mL in the assay with HBV [2] (treatment period day 7); 5.66 ± 0.14 logic lU/mL in the assay with HBV [2] (treatment period day 14); 5.96 ± 0.28 logic lU/mL in the assay with HBV [2] (treatment period day 21); 5.34 ± 0.43 logic lU/mL in the assay with HBV [2] (treatment period day 28); 5.62 ± 0.36 logic lU/mL with HBV [2] (treatment period day 35). Also, the “HBV DNA replication level in mouse serum (treatment period)” value with HBV [2] (treatment period day 42) is 6.44 ± 0.46 logic lU/mL. The “HBV DNA replication level in mouse serum (withdrawal period)” value with HBV [2] (setting [3]) turned out to be 6.97 ± 0.72 log10 IU/mL; in the assay with HBV [2] (setting [4]), 7.32 ± 0.73 log10 IU/mL; with HBV [2] (setting [5]), 7.33 ± 0.80 log10 IU/mL.

Take `CCCCOc1nc(N)c2[nH]cc(Cc3ccc(CN4CCCC4)cc3)c2n1` [TLR7 agonist, 2-butoxy-7-(4-(pyrrolidin-1-ylmethyl)benzyl)-5H-pyrrolo[3,2-d]pyrimidin-4-amine]: in the assay with HBV [1], the “HBV DNA replication (result in words)” value is “achieved inhibition”. In addition, in the assay on HBV [2], the “HBV DNA (result in words)” value is “significantly reduced”. In addition, the “HBV DNA replication level in mouse serum (treatment period)” value with HBV [2] (treatment period day 0) is recorded as 7.53 ± 0.15 logic lU/mL; in the assay with HBV [2] (treatment period day 7) it was 6.64 ± 1.33 logic lU/mL; in the assay with HBV [2] (treatment period day 14), 4.55 ± 1.41 logic lU/mL; with HBV [2] (treatment period day 21), 4.13 ± 0.67 logic lU/mL; in the assay on HBV [2] (treatment period day 28), 3.64 ± 0.21 logic lU/mL; with HBV [2] (treatment period day 35), 3.61 ± 0.24 logic lU/mL. For the same compound, the “HBV DNA replication level in mouse serum (treatment period)” value in the assay on HBV [2] (treatment period day 42) amounted to 3.41 ± 0.33 logic lU/mL. The “HBV DNA replication level in mouse serum (withdrawal period)” value was 4.37 ± 0.48 log10 IU/mL in the assay with HBV [2] (setting [3]), 4.86 ± 0.41 log10 IU/mL in the assay on HBV [2] (setting [4]) and 5.26 ± 0.39 log10 IU/mL with HBV [2] (setting [5]).
